According to patent US20240041898A9, “NEUROSTEROIDS AND ENANTIOMERS THEREOF FOR THE PREVENTION AND TREATMENT OF NEURODEGENERATIVE CONDITIONS” (priority 2019, published 2024):
“And” between values parts separate entries of the source, which are not always exact repeats. Equal entries are not always repeated.

What was measured:
[1] = tested on: pressure-loaded ex vivo rat retinas; type: cell-based; conditions: 75 mmHg; for NDS (neuronal damage score) / NDS, Average: 0-4 scale; for NDS (neuronal damage score) / NFLT vs. RT (%) / Damaged cells in GCL: 24 h, mean±SD; for NDS (neuronal damage score) / NDS, Average / Damaged cells in GCL / NFLT, Average / Damaged cell, Average: neurosteroid 1 μM; for NDS, Average / NFLT, Average / Damaged cell, Average: Average of 9; for axonal swelling in the nerve fiber layer (NFL), light micrographs: 1 μM; for NFLT vs. RT (%): neurosteroid 1 μM (Picro 1 μM, 3-MA 10 mM where named); for Damaged cell, Average: GCL
Procedure: (§1) Rat ex vivo Eyecup Preparation—Rat ex vivo eyecups were prepared from 28-32 day old male Sprague-Dawley rats (Charles River Laboratories International Inc., Wilmington, MA). The anterior half of the enucleated eyes was carefully removed to make eyecup preparations. Eyecups were placed at the bottom of a 100 ml glass beaker filled with aCSF (artificial cerebrospinal fluid) containing (in mM): 124 NaCl, 5 KCl, 2 MgSO4, 2 CaCl2, 1.25 NaH2PO4, 22 NaHCO3, and 10 glucose, and incubated at 30° C. for 24 hours using a closed pressure-loading system (FIG. 1C). pH was maintained at 7.35 to 7.40. In the closed-pressure system, a glass beaker with the eyecup was placed at the bottom of an acrylic pressure chamber (2,000 ml volume). A 95% O2-5% CO2 gas mixture was delivered through disposable plastic tubing with an infusion valve and a control dial on the lid of the pressure chamber and an air filter (Cat #SLGP033RS, Merck Millipore, Billerica, MA). The plastic tubing delivering the gas terminated 1 cm above the bottom of the beaker.
(§2) Acutely prepared eyecups were incubated in gassed aCSF for at least 1 h at 30° C. before pressure loading. In some experiments, AlloP (1 μM), ent-AlloP (1 μM), and 3-MA (10 mM) were dissolved in aCSF at the time of experiment and administered by bath perfusion. Eyecup preparations were treated with these drugs for 1 h at 30° C. before pressure loading. For pressure loading, the 95% O2-5% CO2 gas mixture was infused until the pressure reading given by a manometer reached the appropriate level. The pressure was then locked by adjusting the control dial of the effusion valve, and monitored continuously for 24 h at 30° C.
Data analysis of morphometry—The middle portion of the retina was examined, greater than 1,200 μm away from the center of the optic disc along the inner limiting membrane (ILM). The nerve fiber layer thickness (NFLT) was measured by light microscopy along 5 lines perpendicular to the pigment epithelium at a distance of 15 μm from each other around 1,200 μm away from the center of the optic disc. The average NFLT was determined in 9 different light micrographs taken from 5 eyecup samples in each condition, divided by total retinal thickness, and mean±standard deviation (%) was analyzed and compared with control.
The density of degenerated cells characterized by nuclear chromatin clumping or necrosis in the GCL was determined by counting 9 fields of 500 μm length in light micrographs taken from the block of the middle retinal part 950 to 1450 μm away from the center of the optic disc.
The severity of neuronal damage was assessed by light microscopy using a neuronal damage score (NDS). The NDS was determined in 9 different light micrographs taken from 5 eyecup samples in each condition. The NDS rates neuronal damage in the inner nuclear layer (INL) and the inner plexiform layer (IPL) on a 0-4 scale with 0 signifying no neuronal damage and 4 indicating very severe damage. Criteria used in establishing the degree of neuronal damage included the extent of cytoplasmic swelling in the IPL and the number of neurons in the INL showing signs of severe cytoplasmic swelling and coarse clumping of nuclear chromatin. The highest NDS rating (4) is given when the IPL discloses apparent spongiform appearance due to dendritic swelling and when most cell bodies in the INL show severe cytoplasmic swelling and coarse clumping of nuclear chromatin. If the damage is of a lesser degree, a rating of 3 is given. NDS 2 is assigned when cell bodies in the INL are sporadically swollen. […] Fine dendritic swelling in a limited area of the IPL without damage in the INL is described by NDS 1.
NFLT, density of degenerated cells in the GCL, and NDS were determined as the measurement of 10 different areas from three eyes per experimental condition. These morphometrical parameters were assessed by three raters, who remained unaware of the experimental condition. […]

[2] = tested on: nerve fiber layer (NFL) of retina; experiment: Ex vivo pressure-loaded retinas, electron microscopy of autophagosomes (AP) and degenerative autophagic vacuoles (DAV); type: cell-based, rat; conditions: 75 mmHg, 1 μM; for Autophagosomes (AP) in the NFL, Total / Degenerative autophagic vacuoles (DAV) in the NFL, Total: Total of 10 areas of 25 μm2; for Autophagosomes (AP)/25 μm2 in the NFL, individual areas 1-10 / Degenerative autophagic vacuoles (DAV)/25 μm2 in the NFL, individual areas 1-10: single values
Procedure: as §1, §2
Electron Microscopy—Retinal specimens were trimmed to a smaller size, and ultrathin sections (75 nm) were cut with a diamond knife and suspended over formvar-coated slot grids (1×2 mm opening). The sections were stained with uranyl acetate and lead citrate and viewed in a transmission electron microscope (H-7650, Hitachi High-Technologies Corp., Tokyo, Japan). Numbers of AP and DAV inside NFLs and axons were determined as the sum in 10 different areas of 25 μm^2 each from each sample. The analysis was performed in three eyes per experimental condition.

| Compound | NDS (neuronal damage score) [1] | NDS, Average [1] | axonal swelling in the nerve fiber layer (NFL), light micrographs [1] | NFLT vs. RT (%) [1] | Damaged cells in GCL [1] | NFLT, Average [1] | Damaged cell, Average [1] | RGC axon swelling, electron microscopy [2] | Autophagosomes (AP) in the NFL, Total [2] | Degenerative autophagic vacuoles (DAV) in the NFL, Total [2] | Autophagosomes (AP)/25 μm2 in the NFL, individual areas 1-10 [2] | Degenerative autophagic vacuoles (DAV)/25 μm2 in the NFL, individual areas 1-10 [2] |
| --- | --- | --- | --- | --- | --- | --- | --- | --- | --- | --- | --- | --- |
| CC(=O)[C@H]1CC[C@H]2[C@@H]3CC[C@H]4C[C@H](O)CC[C@]4(C)[C@H]3CC[C@]12C [AlloP, allopregnanolone] | 0.2 ± 0.4 | 0.2 | attenuated | 1.5 ± 0.6% | 2.0 ± 1.7 per 250 μm of retina | 1.5% | 2.0 | protected RGC axons from high pressure | 16 | 8 | 0 /25 μm2 (2×) and 2 /25 μm2 (6×) and 3 /25 μm2 and 1 /25 μm2 | 0 /25 μm2 (4×) and 1 /25 μm2 (5×) and 3 /25 μm2 |
| CC(=O)[C@@H]1CC[C@@H]2[C@H]3CC[C@@H]4C[C@@H](O)CC[C@@]4(C)[C@@H]3CC[C@]21C [ent-AlloP, ent-allopregnanolone] | 0.2 ± 0.4 | 0.2 | substantially inhibited | 1.6 ± 0.6% | 1.9 ± 1.2 per 250 μm of retina | 1.6% | 1.9 | protected RGC axons from high pressure | 1 | 22 | 0 /25 μm2 (9×) and 1 /25 μm2 | 1 /25 μm2 (3×) and 2 /25 μm2 (4×) and 4 /25 μm2 (2×) and 3 /25 μm2 |
